Results from patent US20120315290A1, “INHIBITORS OF LL-37 MEDIATED IMMUNE REACTIVITY TO SELF NUCLEIC ACIDS” (BOARD OF REGENTS, THE UNIVERSITY OF TEXAS SYSTEM, priority 2006, published 2012).

Test system: murine pDC
Test: Murine pDC stimulation with peptide/DNA complexes (IFN-a ELISA)
Assay type: cell-based, mouse
Conditions: complexed with DNA
Description: Murine pDC were generated from Flt3 ligand supplemented BM cultures and isolated by sorting of CD11c+CD11b-B220+ cells, as previously described. 50,000 murine pDC in […] of complete medium were stimulated with human LL-37 ([…]), mouse CRAMP ([…]), DNA alone, or DNA plus LL-37 or DNA plus CRAMP. After overnight culture supernatants were collected and tested for IFN-a by ELISA.
Murine pDC respond to LL-37-DNA complexes. To determine whether mouse pDCs can respond to LL-37/DNA complexes, we purified mouse pDCs from Flt3L-supplemented BM cultures according to their CD11c+CD11b-B220+ phenotype, and stimulated them with DNA complexed with LL-37 or CRAMP (the murine LL-37 homologue). […] However, compared to LL-37, approximately 3 times more CRAMP was required to elicit the same amount of type I IFNs (FIG. 27).

Substance: CRAMP
- Amount required to elicit the same amount of type I IFNs, compared to LL-37: approximately 3 times
